From the supplement of paper PMC10307832

How the values were obtained:
Assay in all cases: relative viability (nuclei count vs DMSO), 5 days (fraction); higher = more cells survive
CAL-12T = system: CAL-12T
How it was run: (§1)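 Five library-drug doses in √10 steps were combined with a fixed anchor-drug dose, or a single drug was given alone, by pin tool to lung cancer cell lines in 1536-well plates the day after seeding. Nuclei were stained and counted after 5 days. Relative viability is the nuclei count in treated wells over that in vehicle wells, taken as the median of duplicate plates.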

NCI-H1650 = system: NCI-H1650
How it was run: as §1

NCI-H727 = system: NCI-H727
How it was run: as §1

201T = system: 201T
How it was run: as §1

NCI-H2087 = system: NCI-H2087
How it was run: as §1

HCC-827 = system: HCC-827
How it was run: as §1

NCI-H1395 = system: NCI-H1395
How it was run: as §1

LCLC-103H = system: LCLC-103H
How it was run: as §1

NCI-H647 = system: NCI-H647
How it was run: as §1

RERF-LC-KJ = system: RERF-LC-KJ
How it was run: as §1

LXF-289 = system: LXF-289
How it was run: as §1

NCI-H1437 = system: NCI-H1437
How it was run: as §1

NCI-H2228 = system: NCI-H2228
How it was run: as §1

NCI-H2405 = system: NCI-H2405
How it was run: as §1

BEN = system: BEN
How it was run: as §1

LCLC-97TM1 = system: LCLC-97TM1
How it was run: as §1

NCI-H322M = system: NCI-H322M
How it was run: as §1

SK-LU-1 = system: SK-LU-1
How it was run: as §1

NCI-H1793 = system: NCI-H1793
How it was run: as §1

NCI-H1944 = system: NCI-H1944
How it was run: as §1

NCI-H3122 = system: NCI-H3122
How it was run: as §1

COc1cc2nccc(Oc3ccc(NC(=O)Nc4cc(C)on4)c(Cl)c3)c2cc1OC [Tivozanib] + COc1cc2c(Oc3ccc(NC(=O)C4(C(=O)Nc5ccc(F)cc5)CC4)cc3F)ccnc2cc1OCCCN1CCOCC1 [Foretinib] (partner 0.25 µM)
relative viability (CAL-12T; first compound 0.005 µM): 1.07 | relative viability (CAL-12T; first compound 0.01581 µM): 0.998 | relative viability (CAL-12T; first compound 0.05 µM): 1.11 | relative viability (CAL-12T; first compound 0.1581 µM): 1.24 | relative viability (CAL-12T; first compound 0.5 µM): 0.916 | relative viability (NCI-H1650; first compound 0.005 µM): 0.955 | relative viability (NCI-H1650; first compound 0.01581 µM): 1.18 | relative viability (NCI-H1650; first compound 0.05 µM): 1.15 | relative viability (NCI-H1650; first compound 0.1581 µM): 0.935 | relative viability (NCI-H1650; first compound 0.5 µM): 1.08 | relative viability (NCI-H727; first compound 0.005 µM): 0.963 | relative viability (NCI-H727; first compound 0.01581 µM): 1.04 | relative viability (NCI-H727; first compound 0.05 µM): 1.32 | relative viability (NCI-H727; first compound 0.1581 µM): 0.853 | relative viability (NCI-H727; first compound 0.5 µM): 0.89 | relative viability (201T; first compound 0.005 µM): 1.14 | relative viability (201T; first compound 0.01581 µM): 1.15 | relative viability (201T; first compound 0.05 µM): 1.08 | relative viability (201T; first compound 0.1581 µM): 1.08 | relative viability (201T; first compound 0.5 µM): 1.16 | relative viability (NCI-H2087; first compound 0.005 µM): 1.04 | relative viability (NCI-H2087; first compound 0.01581 µM): 1.12 | relative viability (NCI-H2087; first compound 0.05 µM): 1.11 | relative viability (NCI-H2087; first compound 0.1581 µM): 0.957 | relative viability (NCI-H2087; first compound 0.5 µM): 0.998 | relative viability (HCC-827; first compound 0.005 µM): 0.994 | relative viability (HCC-827; first compound 0.01581 µM): 1.09 | relative viability (HCC-827; first compound 0.05 µM): 1.02 | relative viability (HCC-827; first compound 0.1581 µM): 1.09 | relative viability (HCC-827; first compound 0.5 µM): 1.01 | relative viability (NCI-H1395; first compound 0.005 µM): 1.04 | relative viability (NCI-H1395; first compound 0.01581 µM): 1.01 | relative viability (NCI-H1395; first compound 0.05 µM): 1.11 | relative viability (NCI-H1395; first compound 0.1581 µM): 0.897 | relative viability (NCI-H1395; first compound 0.5 µM): 1.03 | relative viability (LCLC-103H; first compound 0.005 µM): 0.905 | relative viability (LCLC-103H; first compound 0.01581 µM): 0.809 | relative viability (LCLC-103H; first compound 0.05 µM): 0.686 | relative viability (LCLC-103H; first compound 0.1581 µM): 0.849 | relative viability (LCLC-103H; first compound 0.5 µM): 0.881 | relative viability (NCI-H647; first compound 0.005 µM): 1.05 | relative viability (NCI-H647; first compound 0.01581 µM): 1.28 | relative viability (NCI-H647; first compound 0.05 µM): 1.26 | relative viability (NCI-H647; first compound 0.1581 µM): 1.13 | relative viability (NCI-H647; first compound 0.5 µM): 1.2 | relative viability (RERF-LC-KJ; first compound 0.005 µM): 0.821 | relative viability (RERF-LC-KJ; first compound 0.01581 µM): 0.79 | relative viability (RERF-LC-KJ; first compound 0.05 µM): 0.849 | relative viability (RERF-LC-KJ; first compound 0.1581 µM): 0.919 | relative viability (RERF-LC-KJ; first compound 0.5 µM): 0.863 | relative viability (LXF-289; first compound 0.005 µM): 0.945 | relative viability (LXF-289; first compound 0.01581 µM): 0.933 | relative viability (LXF-289; first compound 0.05 µM): 0.999 | relative viability (LXF-289; first compound 0.1581 µM): 0.986 | relative viability (LXF-289; first compound 0.5 µM): 0.963 | relative viability (NCI-H1437; first compound 0.005 µM): 1.1 | relative viability (NCI-H1437; first compound 0.01581 µM): 1.22 | relative viability (NCI-H1437; first compound 0.05 µM): 1.18 | relative viability (NCI-H1437; first compound 0.1581 µM): 1.24 | relative viability (NCI-H1437; first compound 0.5 µM): 1.25 | relative viability (NCI-H2228; first compound 0.005 µM): 0.887 | relative viability (NCI-H2228; first compound 0.01581 µM): 0.985 | relative viability (NCI-H2228; first compound 0.05 µM): 1.13 | relative viability (NCI-H2228; first compound 0.1581 µM): 0.82 | relative viability (NCI-H2228; first compound 0.5 µM): 0.928 | relative viability (NCI-H2405; first compound 0.005 µM): 1.03 | relative viability (NCI-H2405; first compound 0.01581 µM): 1.04 | relative viability (NCI-H2405; first compound 0.05 µM): 1.08 | relative viability (NCI-H2405; first compound 0.1581 µM): 1.07 | relative viability (NCI-H2405; first compound 0.5 µM): 0.966 | relative viability (BEN; first compound 0.005 µM): 0.559 | relative viability (BEN; first compound 0.01581 µM): 0.789 | relative viability (BEN; first compound 0.05 µM): 0.731 | relative viability (BEN; first compound 0.1581 µM): 0.25 | relative viability (BEN; first compound 0.5 µM): 0.456 | relative viability (LCLC-97TM1; first compound 0.005 µM): 0.904 | relative viability (LCLC-97TM1; first compound 0.01581 µM): 0.939 | relative viability (LCLC-97TM1; first compound 0.05 µM): 0.92 | relative viability (LCLC-97TM1; first compound 0.1581 µM): 0.982 | relative viability (LCLC-97TM1; first compound 0.5 µM): 0.928 | relative viability (NCI-H322M; first compound 0.005 µM): 0.843 | relative viability (NCI-H322M; first compound 0.01581 µM): 1.01 | relative viability (NCI-H322M; first compound 0.05 µM): 0.989 | relative viability (NCI-H322M; first compound 0.1581 µM): 0.926 | relative viability (NCI-H322M; first compound 0.5 µM): 0.969 | relative viability (SK-LU-1; first compound 0.005 µM): 0.794 | relative viability (SK-LU-1; first compound 0.01581 µM): 0.863 | relative viability (SK-LU-1; first compound 0.05 µM): 0.885 | relative viability (SK-LU-1; first compound 0.1581 µM): 0.762 | relative viability (SK-LU-1; first compound 0.5 µM): 0.829 | relative viability (NCI-H1793; first compound 0.005 µM): 0.559 | relative viability (NCI-H1793; first compound 0.01581 µM): 0.7 | relative viability (NCI-H1793; first compound 0.05 µM): 0.685 | relative viability (NCI-H1793; first compound 0.1581 µM): 0.479 | relative viability (NCI-H1793; first compound 0.5 µM): 0.776 | relative viability (NCI-H1944; first compound 0.005 µM): 0.918 | relative viability (NCI-H1944; first compound 0.01581 µM): 0.854 | relative viability (NCI-H1944; first compound 0.05 µM): 0.926 | relative viability (NCI-H1944; first compound 0.1581 µM): 0.924 | relative viability (NCI-H1944; first compound 0.5 µM): 0.931 | relative viability (NCI-H3122; first compound 0.005 µM): 0.913 | relative viability (NCI-H3122; first compound 0.01581 µM): 0.962 | relative viability (NCI-H3122; first compound 0.05 µM): 0.92 | relative viability (NCI-H3122; first compound 0.1581 µM): 1.05 | relative viability (NCI-H3122; first compound 0.5 µM): 0.953
